Measured values taken from ChEMBL document CHEMBL1147150, “Design and synthesis of a potent histone deacetylase inhibitor” (J Med Chem, 2007).
Square brackets hold non-standard residues; d marks the D form. Peptide text beside a SMILES is read from it. * marks the point of attachment. Asu = N[C@@H](CCCCCC(=O)O)C(=O)O; NHOH = ON*

Tests used:
Histone deacetylase = assay: Inhibition of Histone deacetylase in HeLa cell nuclear extracts by fluorescence-based assay; parameters: species or system Homo sapiens
Histone deacetylase 1 = Histone deacetylase 1 (Homo sapiens, UniProt Q13547); assay: Inhibition of human HDAC1
Histone deacetylase 8 = biological target: T1, Histone deacetylase 8 (Homo sapiens, UniProt Q9BY41); assay: Inhibition of human HDAC8
T1 sequence (Q9BY41 whole entry): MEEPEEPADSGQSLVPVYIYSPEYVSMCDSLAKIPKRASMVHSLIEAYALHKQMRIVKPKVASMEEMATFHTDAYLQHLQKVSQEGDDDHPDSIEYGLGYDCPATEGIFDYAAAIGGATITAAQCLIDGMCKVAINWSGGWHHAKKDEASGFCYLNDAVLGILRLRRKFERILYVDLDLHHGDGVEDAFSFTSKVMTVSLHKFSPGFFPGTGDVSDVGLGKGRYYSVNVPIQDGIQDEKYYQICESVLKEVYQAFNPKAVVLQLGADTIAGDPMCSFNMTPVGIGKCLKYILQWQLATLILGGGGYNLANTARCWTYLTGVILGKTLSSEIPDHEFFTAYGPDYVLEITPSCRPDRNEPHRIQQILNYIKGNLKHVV

Chain of Histone deacetylase 1 (Q13547 whole entry): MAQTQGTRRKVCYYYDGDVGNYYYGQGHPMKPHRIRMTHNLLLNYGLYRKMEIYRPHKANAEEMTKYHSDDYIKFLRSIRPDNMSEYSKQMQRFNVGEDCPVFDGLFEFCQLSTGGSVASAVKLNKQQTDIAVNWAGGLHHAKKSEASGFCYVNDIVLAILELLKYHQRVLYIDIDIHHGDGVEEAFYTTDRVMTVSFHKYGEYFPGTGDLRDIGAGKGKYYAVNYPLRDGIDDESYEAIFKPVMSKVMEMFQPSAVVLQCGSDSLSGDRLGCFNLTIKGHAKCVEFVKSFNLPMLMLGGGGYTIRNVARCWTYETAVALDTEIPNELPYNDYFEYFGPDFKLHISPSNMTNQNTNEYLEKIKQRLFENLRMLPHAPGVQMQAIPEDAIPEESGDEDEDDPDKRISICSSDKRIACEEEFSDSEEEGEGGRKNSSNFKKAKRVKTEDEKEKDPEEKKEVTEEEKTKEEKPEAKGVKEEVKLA

Row | IC50 (Histone deacetylase) [nM] | IC50 (Histone deacetylase 1) [nM] | Structure (SMILES) | IC50 (Histone deacetylase 8) [nM] | Ki (Histone deacetylase 8) [nM] | Ki (Histone deacetylase) [nM] | Ki (Histone deacetylase 1) [nM]
1 | 8100 | 40000 | COC(=O)C(Cc1cccc(C[C@H](NC(C)=O)C(=O)O)c1)NC(=O)[C@@H](N)CCCCCC(=O)NO (stereo not given in full) | – | – | – | –
2 | 167 | 174 | COC(=O)[C@H](Cc1ccccc1)NC(=O)[C@H](CCCCCC(=O)NO)NC(=O)[C@H](C)NC(C)=O (Ac-Ala-[Asu](NHOH)-Phe-OMe) | – | – | – | –

Row | Structure (SMILES) | IC50 (Histone deacetylase) [nM] | IC50 (Histone deacetylase 1) [nM] | IC50 (Histone deacetylase 8) [nM] | Ki (Histone deacetylase 8) [nM] | Ki (Histone deacetylase) [nM] | Ki (Histone deacetylase 1) [nM]
3 | COC(=O)[C@@H]1Cc2cccc(c2)C[C@H](NC(C)=O)C(=O)N[C@@H](CCCCCC(=O)NO)C(=O)N1 | 46 | 57 | 231 | 5.32 | 13.67 | 4.15
